Patent US20090131356A1, “miR-15, miR-26, miR-31, miR-145, miR-147, miR-188, miR-215, miR-216, miR-331, mmu-miR-292-3P REGULATED GENES AND PATHWAYS AS TARGETS FOR THERAPEUTIC INTERVENTION” (ASURAGEN, INC., priority 2006, published 2009)

System: Du145 human prostate cancer cells
Assay: Long-term growth curve with repeated electroporation, Du145
Format: cell-based
Conditions: 1.6 μM miRNA electroporated, repeated on days 7 and 14, day 20
Description: The inventors assessed the therapeutic effect of hsa-miR-15a for prostate cancer by using the Du145 human prostate cancer cell line, derived from a brain metastasis (Stone et al., 1978). The inventors conducted growth curve experiments in the presence of miRNA for up to 20 days. Since in vitro transfections of naked interfering RNAs, such as synthetic miRNA, are transient by nature and compromised by the dilution of the miRNA during ongoing cell divisions, miRNA was administered at multiple time points (Bartlett et al., 2006; Bartlett et al., 2007). To accommodate miRNA delivery into a large quantity of cells, the inventors employed the electroporation method for delivery of hsa-miR-15a or negative control miRNA into Du145 human prostate cancer cells. Briefly, 0.5×10^6 Du145 cells were electroporated with 1.6 μM hsa-miR-15a or negative control using the BioRad Gene Pulser Xcell™ instrument (BioRad Laboratories Inc., Hercules, Calif., USA), seeded and propagated in regular growth medium. Experiments were carried out in triplicates. When the control cells reached confluence (days 7 and 14), cells were harvested, counted and electroporated again with the respective miRNAs. To ensure similar treatment of both conditions as well as to accommodate exponential growth, the cell numbers used for the second and third electroporation were titrated down to the lowest count. The population doubling was calculated from these electroporation events using the formula PD=ln(Nf/N0)/ln2 and adjusting for the fact that approximately 72% of newly seeded cells adhere to the plate. Cell counts were extrapolated and plotted on a linear scale (FIG. 10). Arrows represent electroporation days. Standard deviations are included in the graphs.
To evaluate the therapeutic activity of hsa-miR-147 over an extended period of time, the inventors conducted growth curve experiments in the presence of miRNA for up to 21 days. Since in vitro transfections of naked interfering RNAs, such as synthetic miRNA, are transient by nature and compromised by the dilution of the oligo during ongoing cell divisions, miRNA was administered at multiple time points (Bartlett et al., 2006; Bartlett et al., 2007). To accommodate miRNA delivery into a large quantity of cells, the inventors employed the electroporation method to delivery hsa-miR-147 or negative control miRNA into PC3 and Du145 human prostate cancer cells. […] When the control cells reached confluence (days 7 and 14), cells were harvested, counted and electroporated again with the respective miRNAs. […] The population doubling was calculated from these electroporation events using the formula PD=ln(Nf/N0)/ln2 and adjusting for the fact that approximately 72% of newly seeded cells adhere to the plate. […]

Substance: hsa-miR-15a: Synthetic pre-miR-15a (Ambion); mature sequence UAGCAGCACAUAAUGGUUUGUG, MIMAT0000068, SEQ ID NO:1 (synthetic pre-miR (Ambion), chemistry not given here; listed as Homo sapiens)
- cells relative to cells electroporated with negative control miRNA: 11.8%
- inhibition of Du145 cell growth (relative to proliferation of control cells (100%)): 88.2%
